Test results taken from ChEMBL document CHEMBL3351438, “Further optimization of the M5 NAM MLPCN probe ML375: tactics and challenges” (Bioorg Med Chem Lett, 2015).
Values joined by “and” are separate entries in the source; they are usually repeats but may differ in a detail not shown here. Equal values may be shown once. Active and inactive are the calls of the source. The rule behind the calls is not given here.

Tests used:
[1] = Tmax in Sprague-Dawley rat at 10 mg/kg, po; type: ADME, organism-based; set-up: dose 10 mg/kg, route oral; settings: in vivo
Plasma [2] = assay: fCmax in Sprague-Dawley rat plasma at 10 mg/kg, po pretreated with 56.6 mg/kg, po 1-aminobenzotriazole; type: ADME, organism-based; settings: in vivo
[3] = Volume of distribution at steady state in Sprague-Dawley rat at 1 mg/kg, iv; type: ADME, organism-based; set-up: dose 1 mg/kg, route intravenous; settings: in vivo, read-out: Vdss
[4] = (§1) Fraction unbound in Sprague-Dawley rat plasma; type: ADME, cell-free; settings: Sprague-Dawley
[5] = Fraction unbound in Sprague-Dawley rat brain; type: ADME, tissue-based; settings: brain tissue
[6] = Oral bioavailability in Sprague-Dawley rat at 10 mg/kg pretreated with 56.6 mg/kg, po 1-aminobenzotriazole; type: ADME, organism-based; settings: in vivo
[7] = Intrinsic clearance in rat liver microsomes; type: ADME; settings: read-out: CLH
[8] = Mean residence time in Sprague-Dawley rat at 10 mg/kg, po; type: ADME, organism-based; set-up: dose 10 mg/kg, route oral; settings: in vivo
Rattus norvegicus [9] = assay: Oral bioavailability in Sprague-Dawley rat at 10 mg/kg; type: ADME, organism-based; settings: in vivo
[10] = Cmax in Sprague-Dawley rat in brain at 10 mg/kg, po pretreated with 56.6 mg/kg, po 1-aminobenzotriazole; type: ADME, organism-based; set-up: dose 10 mg/kg, route oral
[11] = molecular target: T1, Muscarinic acetylcholine receptor M5 (Rattus norvegicus, UniProt P08911); assay: Negative allosteric modulation of rat muscarinic acetylcholine receptor M5 expressed in CHO cells assessed as inhibition of acetylcholine-induced calcium mobilization incubated for 150 secs prior to acetylcholine induction by Fluo4AM staining-based fluorescence assay; type: functional, cell-based
T1 sequence (P08911 whole entry): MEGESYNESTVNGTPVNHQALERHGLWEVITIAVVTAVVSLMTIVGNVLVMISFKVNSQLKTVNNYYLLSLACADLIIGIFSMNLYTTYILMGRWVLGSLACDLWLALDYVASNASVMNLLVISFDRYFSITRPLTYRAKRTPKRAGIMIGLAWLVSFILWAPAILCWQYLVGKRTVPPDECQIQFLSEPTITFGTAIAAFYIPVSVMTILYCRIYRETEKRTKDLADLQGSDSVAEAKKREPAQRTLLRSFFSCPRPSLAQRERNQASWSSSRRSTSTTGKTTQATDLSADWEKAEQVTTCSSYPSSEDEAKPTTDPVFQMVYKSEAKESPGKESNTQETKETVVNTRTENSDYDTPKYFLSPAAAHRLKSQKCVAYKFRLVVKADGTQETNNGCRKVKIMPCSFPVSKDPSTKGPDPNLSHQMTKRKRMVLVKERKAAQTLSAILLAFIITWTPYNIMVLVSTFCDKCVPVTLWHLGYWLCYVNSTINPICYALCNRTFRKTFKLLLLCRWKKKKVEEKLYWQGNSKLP

[12] = AUC (0 to infinity) in Sprague-Dawley rat at 10 mg/kg, po pretreated with 56.6 mg/kg, po 1-aminobenzotriazole; type: ADME, organism-based; set-up: dose 10 mg/kg, time infinity, route oral; settings: plasma
[13] = Intrinsic clearance in human liver microsomes; type: ADME; settings: read-out: CLH
Rattus norvegicus [14] = assay: AUC (0 to infinity) in Sprague-Dawley rat at 10 mg/kg, po; type: ADME, organism-based, Plasma; set-up: time infinity, dose 10 mg/kg, route oral; settings: in vivo
[15] = Intrinsic clearance in rat hepatocytes; type: ADME, cell-based, Hepatocyte; settings: read-out: CLH
[16] = Intrinsic clearance in human hepatocytes; type: ADME, cell-based, Hepatocyte; settings: read-out: CLH
[17] = molecular target: T2, Muscarinic acetylcholine receptor M5 (Homo sapiens, UniProt P08912); assay: Negative allosteric modulation of human muscarinic acetylcholine receptor M5 expressed in CHO cells assessed as inhibition of acetylcholine-induced calcium mobilization incubated for 150 secs prior to acetylcholine induction by Fluo4AM staining-based fluorescence assay
T2 sequence (P08912 whole entry): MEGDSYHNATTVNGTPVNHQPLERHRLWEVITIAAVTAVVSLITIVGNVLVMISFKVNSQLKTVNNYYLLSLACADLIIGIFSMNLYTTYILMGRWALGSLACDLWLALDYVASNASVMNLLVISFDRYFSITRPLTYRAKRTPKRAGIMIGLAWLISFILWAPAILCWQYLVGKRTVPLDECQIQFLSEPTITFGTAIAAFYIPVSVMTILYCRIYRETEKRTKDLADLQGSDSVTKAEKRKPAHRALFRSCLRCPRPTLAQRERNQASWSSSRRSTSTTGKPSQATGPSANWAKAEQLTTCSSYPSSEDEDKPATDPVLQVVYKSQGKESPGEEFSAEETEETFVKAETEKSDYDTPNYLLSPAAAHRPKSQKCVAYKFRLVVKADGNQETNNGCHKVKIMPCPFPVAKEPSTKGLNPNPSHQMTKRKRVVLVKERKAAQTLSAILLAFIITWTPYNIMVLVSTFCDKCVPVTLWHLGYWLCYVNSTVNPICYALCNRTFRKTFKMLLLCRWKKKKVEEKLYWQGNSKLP

[18] = Cmax in Sprague-Dawley rat in plasma at 10 mg/kg, po pretreated with 56.6 mg/kg, po 1-aminobenzotriazole; type: ADME, organism-based; set-up: dose 10 mg/kg, route oral
[19] = Half life in Sprague-Dawley rat at 1 mg/kg, iv; type: ADME, organism-based; set-up: dose 1 mg/kg, route intravenous; settings: in vivo
[20] = (§2) Fraction unbound in human plasma; type: ADME, cell-free
[21] = molecular target: T3, Muscarinic acetylcholine receptor M5 (Homo sapiens) (UniProt P08912); settings: CHO
T3 sequence (whole entry): T2 sequence (P08912 whole entry)

Plasma [22] = assay: as §1; type: ADME, cell-free
Plasma [23] = assay: as §2; type: ADME, cell-free

SMILES | IC50 [17] | further results
COc1ccc([C@@]23c4ccccc4C(=O)N2CCN3C(=O)c2cc(F)c(F)c(F)c2)cc1C | 264 nM | Tmax [1]: 2.8 h; fCmax (Plasma [2]): 62 nM; Vd [3]: 4.9 L/kg; fraction unbound [4]: 0.031; fraction unbound [5]: 0.006; bioavailability [6]: 9.5%; CLint scaled [7]: 332 mL/min/kg; MRT [8]: 6.5 h; F (Rattus norvegicus [9]): 2%; Cmax [10]: 5.4 µM; IC50 ([11]; read-out: IC50): 516 nM; AUC(0-inf) [12]: 17700 ng·h/mL; CLint scaled [13]: 359 mL/min/kg; AUC (Rattus norvegicus [14]): 3660 ng·h/mL; CLint scaled [15]: 57.8 mL/min/kg; CLint scaled [16]: 19.8 mL/min/kg; Cmax [18]: 2 µM; half-life [19]: 1.08 h
COc1ccc([C@]23c4ccccc4C(=O)N2CCN3C(=O)c2cc(F)c(F)c(F)c2)cc1C |  | IC50 ([11]; cho): Not Active; fraction unbound [20]: 0.013; IC50 ([17]; cho): Not Active; pIC50 [21]: inactive
[2H]C([2H])([2H])Oc1ccc([C@@]23c4ccccc4C(=O)N2CCN3C(=O)c2cc(F)c(F)c(F)c2)cc1C |  | CLint scaled [7]: 275 mL/min/kg; CLint scaled [15]: 55.8 mL/min/kg; CLint scaled [16]: 16.3 mL/min/kg
O=C(c1ccc(F)c(F)c1)N1CCN2C(=O)c3ccccc3C12c1ccc(Cl)cc1 (racemic) |  | Fu (Plasma [22]): 0.031; Fu (Plasma [23]): 0.015
CC(C)Oc1ccc(C23c4ccccc4C(=O)N2CCN3C(=O)c2ccc(F)c(F)c2)cc1 (racemic) | > 30000 nM | 
O=C(c1ccc(F)c(F)c1)N1CCN2C(=O)c3ccccc3C12c1ccc2c(c1)OCO2 (racemic) | 1300 nM | 
COc1ccc(C23c4ccccc4C(=O)N2CCN3C(=O)c2ccc(F)c(F)c2)cc1F (racemic) | 3300 nM | 
COc1ccc(C23c4ccccc4C(=O)N2CCN3C(=O)c2ccc(F)c(F)c2)cc1Cl (racemic) | 5500 nM | 
COc1ccc(C23c4ccccc4C(=O)N2CCN3C(=O)c2ccc(F)c(F)c2)cc1C (racemic) | 1200 nM | 
COc1cc(C23c4ccccc4C(=O)N2CCN3C(=O)c2ccc(F)c(F)c2)ccc1F (racemic) | 2700 nM | 
COc1cc(C23c4ccccc4C(=O)N2CCN3C(=O)c2ccc(F)c(F)c2)ccc1Cl (racemic) | 2000 nM | 
COc1cc(C23c4ccccc4C(=O)N2CCN3C(=O)c2ccc(F)c(F)c2)ccc1C (racemic) | 1300 nM | 
CCOc1ccc(C23c4ccccc4C(=O)N2CCN3C(=O)c2cc(F)c(F)c(F)c2)cc1 (racemic) | > 30000 nM | 
CC(C)Oc1ccc(C23c4ccccc4C(=O)N2CCN3C(=O)c2cc(F)c(F)c(F)c2)cc1 (racemic) | 2400 nM | 
O=C(c1cc(F)c(F)c(F)c1)N1CCN2C(=O)c3ccccc3C12c1ccc2c(c1)OCO2 (racemic) | 1000 nM | 
COc1ccc(C23c4ccccc4C(=O)N2CCN3C(=O)c2cc(F)c(F)c(F)c2)cc1F (racemic) | > 30000 nM | 
COc1ccc(C23c4ccccc4C(=O)N2CCN3C(=O)c2cc(F)c(F)c(F)c2)cc1Cl (racemic) | 1400 nM | 
COc1ccc(C23c4ccccc4C(=O)N2CCN3C(=O)c2cc(F)c(F)c(F)c2)cc1C (racemic) | 510 nM | IC50 ([11]; read-out: IC50): 963 nM
COc1cc(C23c4ccccc4C(=O)N2CCN3C(=O)c2cc(F)c(F)c(F)c2)ccc1F (racemic) | 700 nM | 
COc1cc(C23c4ccccc4C(=O)N2CCN3C(=O)c2cc(F)c(F)c(F)c2)ccc1Cl (racemic) | 1600 nM | 
COc1cc(C23c4ccccc4C(=O)N2CCN3C(=O)c2cc(F)c(F)c(F)c2)ccc1C (racemic) | 900 nM | 
CCOc1ccc(C23c4ccccc4C(=O)N2CCN3C(=O)c2ccc(OC(C)C)cc2)cc1 (racemic) | 4100 nM | 
CC(C)Oc1ccc(C(=O)N2CCN3C(=O)c4ccccc4C23c2ccc(OC(C)C)cc2)cc1 (racemic) | 1900 nM | 
CC(C)Oc1ccc(C(=O)N2CCN3C(=O)c4ccccc4C23c2ccc3c(c2)OCO3)cc1 (racemic) | 1100 nM | 
COc1ccc(C23c4ccccc4C(=O)N2CCN3C(=O)c2ccc(OC(C)C)cc2)cc1F (racemic) | 3200 nM | 
COc1ccc(C23c4ccccc4C(=O)N2CCN3C(=O)c2ccc(OC(C)C)cc2)cc1Cl (racemic) | 3300 nM | 
COc1ccc(C23c4ccccc4C(=O)N2CCN3C(=O)c2ccc(OC(C)C)cc2)cc1C (racemic) | 1300 nM | 

SMILES | IC50 [17] | further results
COc1cc(C23c4ccccc4C(=O)N2CCN3C(=O)c2ccc(OC(C)C)cc2)ccc1F (racemic) | 1300 nM | 
COc1cc(C23c4ccccc4C(=O)N2CCN3C(=O)c2ccc(OC(C)C)cc2)ccc1Cl (racemic) | 6400 nM | 
COc1cc(C23c4ccccc4C(=O)N2CCN3C(=O)c2ccc(OC(C)C)cc2)ccc1C (racemic) | 2200 nM | 
COc1ccccc1C(=O)N1CCN2C(=O)c3ccccc3C12c1ccc(Cl)cc1 (racemic) | > 10000 nM | 
COc1cccc(C(=O)N2CCN3C(=O)c4ccccc4C23c2ccc(Cl)cc2)c1 (racemic) | 6600 nM | 
COc1ccc(C(=O)N2CCN3C(=O)c4ccccc4C23c2ccc(Cl)cc2)cc1 (racemic) | 1800 nM | 
CCOc1ccc(C(=O)N2CCN3C(=O)c4ccccc4C23c2ccc(Cl)cc2)cc1 (racemic) | 850 nM | 
CC(C)Oc1ccc(C(=O)N2CCN3C(=O)c4ccccc4C23c2ccc(Cl)cc2)cc1 (racemic) | 790 nM | 
O=C(c1cc(F)c(F)c(F)c1)N1CCN2C(=O)c3ccccc3C12c1ccc(Cl)cc1 (racemic) | 610 nM | 
CN(C)c1ccc(C(=O)N2CCN3C(=O)c4ccccc4C23c2ccc(Cl)cc2)cc1 (racemic) | > 10000 nM | 
O=C(c1ccc(F)nc1)N1CCN2C(=O)c3ccccc3C12c1ccc(Cl)cc1 (racemic) | > 10000 nM | 
O=C(c1ccnc(F)c1)N1CCN2C(=O)c3ccccc3C12c1ccc(Cl)cc1 (racemic) | 5800 nM | 
O=C(c1ccnnc1)N1CCN2C(=O)c3ccccc3C12c1ccc(Cl)cc1 (racemic) | > 10000 nM | 
O=C(c1cc(F)nc(F)c1)N1CCN2C(=O)c3ccccc3C12c1ccc(Cl)cc1 (racemic) | > 10000 nM | 
COc1ccccc1C12c3ccccc3C(=O)N1CCN2C(=O)c1ccc(F)c(F)c1 (racemic) | 5620 nM and 5500 nM | 
COc1cccc(C23c4ccccc4C(=O)N2CCN3C(=O)c2ccc(F)c(F)c2)c1 (racemic) | 1600 nM | 
COc1ccc(C23c4ccccc4C(=O)N2CCN3C(=O)c2ccc(F)c(F)c2)cc1 (racemic) | 1300 nM | Fu (Plasma [22]): 0.064; Fu (Plasma [23]): 0.037
O=C(c1ccc(F)c(F)c1)N1CCN2C(=O)c3ccccc3C12c1ccc(Oc2ccccc2)cc1 (racemic) | > 10000 nM | 
O=C(c1ccc(F)c(F)c1)N1CCN2C(=O)c3ccccc3C12C1CCCCC1 (racemic) | 2100 nM | Fu (Plasma [22]): 0.016; Fu (Plasma [23]): 0.008
O=C(c1ccc(F)c(F)c1)N1CCN2C(=O)c3ccccc3C12C1CCCC1 (racemic) | 2400 nM | 
O=C(c1ccc(F)c(F)c1)N1CCN2C(=O)c3ccccc3C12C1CCC1 (racemic) | > 10000 nM | 
O=C(c1ccc(F)c(F)c1)N1CCN2C(=O)c3ccccc3C12C1CC1 (racemic) | > 10000 nM | 
O=C(c1ccc(F)c(F)c1)N1CCN2C(=O)c3ccccc3C12C1CCOCC1 (racemic) | > 10000 nM | 
O=C(c1ccc(F)c(F)c1)N1CCN2C(=O)c3ccccc3C12c1ccccn1 (racemic) | > 10000 nM | 
O=C(c1ccc(F)c(F)c1)N1CCN2C(=O)c3ccccc3C12c1cccnc1 (racemic) | > 10000 nM | 
O=C(c1ccc(F)c(F)c1)N1CCN2C(=O)c3ccccc3C12c1ccncc1 (racemic) | > 10000 nM | 
CCOc1ccc(C23c4ccccc4C(=O)N2CCN3C(=O)c2ccc(F)c(F)c2)cc1 (racemic) | 3200 nM | 
